# Measurements: US20260060960A1, “GAMMA-SECRETASE INHIBITORS FOR USE IN THE TREATMENT OF INHERITED EPIDERMOLYSIS BULLOSA” (OSPEDALE PEDIATRICO BAMBINO GESU', priority 2022, published 2026)
# Entries after “also recorded” stand apart in the source; their conditions may differ.
# Key:
# Assay type in all cases: cell-based, human
# [1] = system: primary fibroblasts from RDEB patients (RDEB-FBs); assay: Collagen lattice contraction (CLC) assay; conditions: for cell contractility (collagen lattice contraction) / contractility (collagen lattice contraction): RDEB-FBs, 20 μM, 48 h; for contractility (collagen lattice contraction): presence of TGF-β1 2 ng/mL
# Protocol: RDEB-FBs (5×10^5 cells) were mixed in a collagen buffer and seeded into 12-well plates as previously described. After gelation, fibroblast-populated collagen lattices were detached from the wells and left floating. RDEB-FBs were treated with 20 μM of DAPT and PF-03804014 in DMEM containing 0.1% BSA, in the presence or absence of TGF-β1 at 2 ng/mL, as contraction booster. JAG1-silenced RDEB-FBs were embedded in collagen lattices 24 h after siRNA transfection. In both cases, images were acquired with ChemiDoc™ XRS+ System (Bio-Rad, Hercules, CA, USA) at the detachment of collagen lattices from the wells (time 0, TO) and after 48 h. Gel areas were measured by ImageJ software and photos at TO were used as references.
# [2] = system: TGF-β1 secreted by RDEB-FBs; assay: TGF-β1 ELISA on conditioned media of RDEB fibroblasts; conditions: 20 μM, 48 h; for acid-activated TGF-β1 in conditioned media: three RDEB-FB strains, mean±SD
# Protocol: Human TGF-β1 Quantikine ELISA Kit (R&D Systems, Minneapolis, MN, USA) was used to measure the amount of TGF-β1 (pg/mL) in serum-free conditioned media of three RDEB-FB strains, treated or not with PF-03084014 and DAPT at 1 or 20 μM for 48 h. DMSO-treated cells were used as controls. TGF-β1 Quantikine ELISA Kit was performed as per manufacturer's instructions. Samples were assayed in duplicate for each experimental condition. In order to detect both the latent precursor and the active form without latency-associated peptide cell supernatants were subjected to acid activation prior to be analyzed. Absorbance values were recorded at 455 nm with an Infinite F50 microplate reader (Tecan, Männedorf, Switzerland) and analyzed by employing the GraphPad Prism 8.2 version (GraphPad Software Inc., San Diego, CA, USA).
# [3] = system: NOTCH1 intracellular domain (N1-ICD); assay: Immunoblotting of cleaved NOTCH1 (N1-ICD) in nuclear extracts of RDEB fibroblasts; conditions: 24 h; for intranuclear levels of N1-ICD: RDEB-FBs, 5, 10 and 20 μM
# Text: 3-(4,5-dimethyl-2-thiazolyl)-2,5-diphenyl-2H-tetrazolium bromide (MTT) assay showing the impact of DAPT and PF-03084014 treatment on viability and proliferation rate of three primary fibroblast strains from healthy controls (NH-FBs). Absorbance values (Abs) were converted in percentage by using the following formula: AbsDAPT or PF-03084014×100/AbsREFERENCE WELLS. Data are presented as mean±standard deviation (SD) of at least eight technical replicates per condition. Cells treated with the vehicle DMSO (Panel A), and cells analyzed 24 h after seeding (T0) (Panel B) were considered as reference wells. NH-FBs were growth in DMEM medium containing 10% fetal bovine serum (FBS). […] Based on the results, it was chosen to use GSIs at 20 μM (black arrows) as it was the minimal drug concentration inducing a reduction of cell proliferation after 24 h of treatment. (Panel C) Immunoblotting analysis showing the protein levels of the cleaved and biologically active form of NOTCH1 receptor (N1-ICD, NOTCH1 intracellular domain) in nuclear extracts of primary fibroblasts from RDEB patients (RDEB-FBs, n=2) treated for 24 h with DAPT and PF-03084014 at different doses, ranging from 0.1 to 20 μM. Cells treated with the vehicle dimethyl sulfoxide (DMSO) were used as control. The reduced nuclear localization of N1-ICD indicates Notch pathway inhibition. […] Lamin B1 (LMNB1) and glyceraldehyde-3-phosphate dehydrogenase (GAPDH) served as loading controls for the nuclear and cytoplasmic protein fractions, respectively. **P-value <0.01, ***P<0.001.
# RDEB-FBs were seeded on 100 mm cell culture dishes (8×10^5 cells/dish). Subconfluent cells were treated with different concentrations of PF-03084014 or DAPT for 24 h (FIG. 1—Panel C) or with 2 ng/mL of TGF-β1 for 6 h (FIG. 3D). DMSO-treated cells were used as controls. After cell harvesting with trypsin-EDTA, cytoplasmic and nuclear lysates were obtained using NE-PER™ Nuclear and Cytoplasmic Extraction Reagents kit (Thermo Fisher Scientific), following the manufacturer's instructions with slight modifications. […]
# [4] = system: α-SMA, TAGLN, CNN1, JAG1; assay: Immunoblotting of myofibroblast/fibrotic markers in RDEB fibroblasts; conditions: RDEB-FBs, 24 h, absence and presence of TGF-β1
# Text: Whole-cell lysates were obtained in radioimmunoprecipitation assay (RIPA) buffer (Sigma-Aldrich) supplemented with phosphatase- and protease inhibitors (Merck). Different amounts of protein lysates were run under reducing conditions by using 4-12% gradient precast gels (Thermo Fisher Scientific) or hand-casting polyacrylamide gels (4-8%), depending on the protein to be assayed. Amersham™ Protran® Premium nitrocellulose membranes (pore size 0.2 μm) (Merck) were immunoblotted with primary antibodies indicated in Table 3 and incubated with horseradish peroxidase-linked secondary antibodies.
# Detection was performed using Cytiva ECL™ Prime Western Blotting System (Merck) or SuperSignal West Femto (Thermo Fisher Scientific), depending on the protein to be assayed. Antibody against Notch1 (all forms; clone bTAN20) was obtained from the Developmental Studies Hybridoma Bank (DSHB) at the University of Iowa (DSHB, Iowa City, IA, USA). GAPDH (clone 14C10), Jagged1 (clone 28H8) and NOTCH1 intracellular domain (clone D3B8) were obtained from Cell Signaling (Cell Signaling Technology Inc., Beverly, MA, USA). Antibodies against TAGLN (clone #859112) and CNN1 (clone #836701) were from R&D Systems (R&D Systems, Inc. Minneapolis, MN, USA). Antibody against α-SMA (clone 1A4) was purchased from Sigma-Aldrich. Antibody against lamin B1 (LMNB1) was from Abcam (Cambridge, UK). […]
Compound,cell contractility (collagen lattice contraction) ([1]; absence of TGF-β1),contractility (collagen lattice contraction) [1],acid-activated TGF-β1 in conditioned media [2] [pg/mL],intranuclear levels of N1-ICD [3],protein levels of contractile and fibrotic markers (immunoblotting) [4],"contractile properties (collagen lattice contraction) in strain RDEB-FB1 ([1]; RDEB-FB1, 20 μM, absence of TGF-β1)",reduction of TGF-β1 released in culture media ([2]; vs cells treated with DMSO and DAPT),"nuclear N1-ICD protein levels (NOTCH1 cleavage and nuclear translocation) ([3]; RDEB-FBs, 0.1, 0.5, 1 μM, compared with DAPT)"
"C[C@H](NC(=O)Cc1cc(F)cc(F)c1)C(=O)N[C@H](C(=O)OC(C)(C)C)c1ccccc1 [DAPT, N—[N-(3,5-difluorophenacetyl)-L-alanyl]-S-phenylglycine t-butyl ester]",didn't exhibit significant variations,"significant, although less conspicuous",250.4 ± 97.3,comparable impact on the intranuclear levels of N1-ICD,,,,
"CCC[C@H](N[C@H]1CCc2cc(F)cc(F)c2C1)C(=O)Nc1cn(C(C)(C)CNCC(C)(C)C)cn1 [PF-03084014, (S)-2-((S)-5,7-difluoro-1,2,3,4-tetrahydronaphthalen-3-ylamino)-N-(1-(2-methyl-1-(neopentylamino)propan-2-yl)-1H-imidazol-4-yl)pentanamide]",modest but consistent in all RDEB-FB strains analyzed,marked reduction of contractility,99.6 ± 40.8,comparable impact on the intranuclear levels of N1-ICD,"down-regulation of the prototypical contractile and fibrotic markers, including JAG1",striking inhibition of contractile properties,up to 60%,huge reduction; also recorded: greater ability of PF-03084014 in inhibiting NOTCH1 cleavage and its nuclear translocation
